Test results: patent publication US11191811B2, “Osteocalcin as a treatment for frailty associated with aging” (THE TRUSTEES OF COLUMBIA UNIVERSITY IN THE CITY OF NEW YORK, priority 2014, dated 2021)
“Also recorded” adds a separate entry of the source.

Tests used:
Osteocalcin−/− embryos = experiment: Brain histology, apoptosis and Western blot of Osteocalcin−/− offspring of injected Osteocalcin−/− mothers; assay type: in vivo, mouse
Protocol: FIG. 13. Maternal osteocalcin determines spatial learning and memory in adult offspring. (A-F) DLT (A), EPMT (B), OFT (C), FST (D), TST (E), and MWMT (F) performed in 3-month-old Osteocalcin^−/− mice born from Osteocalcin^−/− mothers injected once a day with vehicle or recombinant uncarboxylated osteocalcin (240 ng/day) during pregnancy compared to WT mice. (G) Surface of the lateral ventricle over brain area (%) of E18.5 hippocampi coronal sections of WT embryos originating from WT mothers and Osteocalcin^−/− embryos originating from osteocalcin-injected Osteocalcin^−/− mothers. (H) Number of apoptotic cells (stained by TUNEL assay) of E18.5 hippocampi coronal sections of WT embryos originating from WT mothers and Osteocalcin^−/− embryos originating from Osteocalcin^−/− mothers injected with osteocalcin (240 ng/day). (I) Cresyl violet, NeuN immunofluorescence, and dentate gyrus area (% versus WT) of WT and Osteocalcin^−/− embryos originating from osteocalcin-injected Osteocalcin^−/− mothers. Scale bars=0.5 mm.
Immunofluorescence of whole adult and embryonic brains was performed on […] coronal cryostat slices of tissue fixed with 4% PFA, embedded in cryomatrix (Tissue-Tek) and stored at −80° C. Sections were allowed to dry at room temperature, post-fixed in 4% PFA followed by permeabilization with 0.1% Triton detergent. After room temperature blocking with donkey serum, sections were incubated with anti-Neun antibody (Millipore) overnight at 4° C. Slides were mounted with Fluorogel (Electron Microscopy Sciences).
Cresyl violet staining to visualize brain morphology was carried out by incubating 20 μm cryosections defatted with 1:1 chloroform:ethanol in cresyl violet acetate (1 g/L) overnight. The stain was differentiated using ethanol and xylene and mounted using DPX mounting medium for histology (Sigma).
To assess apoptosis in WT and Osteocalcin^−/− brains, 20 μm cryostat sections were processed using the APOPTAG® Fluorescein Direct In Situ Apoptosis Detection Kit (Millipore) according to manufacturer's protocol. Images were obtained using Leica DM 4000B, and Image J was used to quantify cell number and intensity of staining.
To further evaluate the importance of maternal osteocalcin for the acquisition of spatial learning and memory in adult offspring, pregnant Osteocalcin^−/− mothers from E0.5 to E18.5 were treated with injections, once a day, of osteocalcin (240 ng/day). Osteocalcin was never injected in these females or their pups after delivery. […] Likewise, the number of apoptotic cells was reduced and the number of NeuN positive cells was increased compared to Osteocalcin^−/− embryos originating from Osteocalcin^−/− mothers that were not injected (FIG. 13I-J).

[1] = tested on: glycolytic and oxidative muscles of WT mice; experiment: In vivo 3H-2-DG glucose uptake in muscle after exercise; design: species or system mouse; details: older WT mice receiving Ocn (500 ng/g) before running; greater extent in oxidative than glycolytic muscles
Protocol: FIG. 31. Osteocalcin treatment increases muscle function in young and old WT mice. (A-B) Performance during endurance exercise of 3 month-old WT, Gprc6af/f and Gprc6aMck−/− female mice treated with Ocn (n=6-10 per group). (C) Performance during endurance exercise of 12 and 15 month-old WT female mice treated with Ocn (n=6-10 per group). (D) Western blot analysis of Akt phosphorylation (Ser473) in muscles of WT mice injected with Ocn (500 ng/g) after a single bout of exercise. (E) Western blot analysis of AMPK phosphorylation ([…]) in muscles of WT mice injected with Ocn (500 ng/g) after a single bout of exercise. […]
Glucose and insulin tolerance tests were performed as previously described (Lee et al., 2007, Cell 130:456-469). For in vivo glucose uptake, a bolus of 2-deoxy-d-[^3H]glucose (^3H-2-DG, Perkin Elmer) (10 μCi) was administered before an endurance run. ^3H-2-DG and ^3H-2-DG-6-P content in muscle was determined by liquid scintillation counter and normalized to muscle weight. […] GLUT4 translocation was determined by flow cytometry using an antibody against the extracellular domain of the GLUT4 protein (Santa Cruz, Sc-1606). […] To analyze mitochondrial function, myofibers were treated with three compounds in succession (oligomycin 10 μg/ml, FCCP 200 μM, rotenone 0.2 μM) and OCR was recorded following administration of each of them.

Osteocalcin−/− mice = experiment: Bronchoconstriction of Osteocalcin−/− mice, intracerebroventricular infusion; assay type: in vivo, mouse; details: intracerebroventricular infusions in Osteocalcin−/− mice
wild-type mice = experiment: Allergen-triggered asthma-like condition, osteocalcin delivery; assay type: in vivo, mouse
Protocol: The level of acetylcholine, a neurotransmitter that causes bronchoconstriction, is increased in the lungs but not in the brains of Osteocalcin^−/− and Gprc6a^−/− mice.
When metacholine is administered to the lungs of mice, the lung airways constrict. […] Wild-type mice were treated with an inflammation-increasing agent and developed asthma that included bronchoconstriction and signs of inflammation.

wild type mice = experiment: Body weight and gonadal fat pad mass during subcutaneous infusion; assay type: in vivo, mouse
Protocol: FIG. 4. Osteocalcin subcutaneous infusion decreases fat mass in wild-type mice. (A) Indicated doses of recombinant osteocalcin or PBS were infused subcutaneously for 28 days in wild-type mice. Body weight was recorded at indicated days. (B) Gonadal fat pad mass was measured after 28 days.
In another in vivo experiment, the effect of uncarboxylated osteocalcin on body weight and fat pad mass was monitored (FIG. 4). Wild type mice were infused subcutaneously for 28 days with PBS or uncarboxylated osteocalcin at 0.3, 1 or 3 ng/hour. […] Gonadal fat pad mass, measured after 28 days, decreased by about %18 with 3 ng/hour uncarboxylated osteocalcin treatment.

[2] = E18.5 embryos, versus embryos of mothers not injected
[3] = delivery by nebulization (two weeks)

## uncarboxylated osteocalcin: Recombinant uncarboxylated mouse osteocalcin, bacterially produced, purified on glutathione beads and cleaved from the GST subunit by thrombin (YLGASVPSPDPLEPTREQCELNPACDELSDQYGLKTAYKRIYGITI)
Osteocalcin−/− embryos; E18.5 Osteocalcin−/− embryos, mothers injected 240 ng/day, cresyl violet
  cerebral ventricle enlargement: rescue
Osteocalcin−/− embryos; E18.5 embryos, Western blot, versus mothers not injected
  Caspase-3 cleaved protein level in the hippocampus: decrease
Osteocalcin−/− embryos; [2]
  number of NeuN positive cells: increased
  number of apoptotic cells: reduced
Osteocalcin−/− embryos; adult Osteocalcin−/− originating from Osteocalcin−/− mothers
  thickness defect in the CA3 and CA4 regions of the hippocampus: rescue
[1]
  glucose uptake in muscle: increase
Osteocalcin−/− mice
  bronchoconstriction: do not correct
wild-type mice; [3]
  bronchoconstriction: completely rescued
  local inflammation / inflammatory signs: without affecting; also recorded: still observed
wild-type mice; osteocalcin delivered to the brains
  bronchoconstriction: did not show a similar effect
Wild type mice; 3 ng/hour, after 28 days
  decrease of gonadal fat pad mass: ~18%
Wild type mice; 0.3, 1 or 3 ng/hour subcutaneously for 28 days, highest dose most effective
  body weight: slightly reduced
Wild type mice; subcutaneous infusion 28 days (FIG. 4 title)
  fat mass: decreases
Wild type mice; the other doses (0.3, 1 ng/hour), 28 days
  gonadal fat pad mass: did not significantly decrease
